According to publication PMC5515969, “Effects of 31 FDA approved small-molecule kinase inhibitors on isolated rat liver mitochondria” (Archives of Toxicology, 2016):
Where two headings read alike, the source gives them in different places.

Key:
[1] = system: isolated rat liver mitochondria; assay: Mitochondrial inner membrane potential (MMP), Rhodamine 123; format: biochemical; conditions: difference in signal between KI and DMSO treated samples at the end of experiments
Source text: Fig. 3 KI effects on mitochondrial inner membrane potential (MMP). […] In a, c, data are means and standard derivations from three separate experiments. *p < 0.05 as compared to DMSO-treated samples at the end of experiments. In b, data are means of two independent experiments

[2] = system: isolated rat liver mitochondria; assay: Mitochondrial swelling (absorbance at 535 nm); format: biochemical; conditions: difference in signal between KI and DMSO treated samples at the end of experiments; on Swelling 5XCmax: key: 0 indicates that the drug had no effects (negative)
RCC III = RCC III activity in submitochondrial particles; format: biochemical, rat; set-up: key to RCC III at 100XCmax: activity relative to DMSO-treated controls (control set as 1 = 100%); conditions: 100XCmax; relative to DMSO treated samples
How it was run: (§1)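 First, submitochondrial particles (1 mg/ml) are incubated with inhibitor for 15 min. Next, complex activities are followed spectrophotometrically, with RCC I taken as the difference between buffers lacking and containing rotenone. Finally, activities are expressed relative to DMSO controls set at 1.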

[3] = system: isolated rat liver mitochondria; assay: Mitochondrial oxygen consumption (glutamate/malate or succinate driven, state 4 and state 3); format: biochemical; conditions: DMSO treated samples set as 1; on State 3 respiration driven by succinate at 10XCmax: key: 0 indicates that the drug had no effects (negative); on State 3 respiration driven by succinate at 1XCmax: key: 0 indicates that the drug had no effects (negative)
How it was run: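 Rat liver mitochondria (1 mg/ml protein) exposed 5 min to kinase inhibitors in 0.1% DMSO, then O2 consumption measured by Clark-type electrode with glutamate/malate or succinate (state 4), ADP added after 3 min (state 3). Rates normalized to 0.1% DMSO controls set to 1.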

[4] = system: isolated rat liver mitochondria; conditions: positive control alamethicin treated samples
RCC IV = RCC IV activity in submitochondrial particles; format: biochemical, rat; set-up: key to RCC IV at 50XCmax / RCC IV at 100XCmax: activity relative to DMSO-treated controls (control set as 1 = 100%); conditions: 50XCmax; relative to DMSO treated samples; in %
How it was run: as §1

[5] = system: isolated rat liver mitochondria; assay: Mitochondrial ROS production (CM-H2DCFDA); conditions: DMSO treated samples set as 1
[6] = therapeutic maximal blood concentration, ref product labeling, cited from earlier work
[7] = 1 = DILI positive, 0 = negative; ref product labeling; cited from earlier work

## N#CC[C@H](C1CCCC1)n1cc(-c2ncnc3[nH]ccc23)cn1 [ruxolitinib phosphate]
[1]; 1XCmax
  MMP measured by Rhodamine 123 at 1XCmax: 0
[1]; 2.5XCmax
  MMP measured by Rhodamine 123 at 2.5XCmax: 0
[1]; 5XCmax
  MMP measured by Rhodamine 123 at 5XCmax: 0
[1]; 10XCmax
  MMP measured by Rhodamine 123 at 10XCmax: 0
[1]; 20XCmax
  MMP measured by Rhodamine 123 at 20XCmax: 0
[1]; 30XCmax
  MMP measured by Rhodamine 123 at 30XCmax: 0
[1]; 50XCmax
  MMP measured by Rhodamine 123 at 50XCmax: 0
[1]; 100XCmax
  MMP measured by Rhodamine 123 at 100XCmax: 0
[2]; 1XCmax
  Swelling 1XCmax: 0
[2]; 2.5XCmax
  Swelling 2.5XCmax: 0
[2]; 5XCmax
  Swelling 5XCmax: 0
[2]; 10XCmax
  Swelling 10XCmax: 0
[2]; 20XCmax
  Swelling 20XCmax: 0
[2]; 30XCmax
  Swelling 30XCmax: 0
[2]; 50XCmax
  Swelling 50XCmax: 0
[2]; 100XCmax
  Swelling 100XCmax: 0
RCC III
  RCC III at 100XCmax: 0
[3]; 1XCmax
  State 3 respiration driven by glutamate/malate at 1XCmax: 0
  State 3 respiration driven by succinate at 1XCmax: 0
  State 4 respiration driven by glutamate/malate at 1XCmax: 0
  State 4 respiration driven by succinate at 1XCmax: 0
[3]; 2.5XCmax
  State 3 respiration driven by glutamate/malate at 2.5XCmax: 0
  State 3 respiration driven by succinate at 2.5XCmax: 0
  State 4 respiration driven by glutamate/malate at 2.5XCmax: 0
  State 4 respiration driven by succinate at 2.5XCmax: 0
[3]; 5XCmax
  State 3 respiration driven by glutamate/malate at 5XCmax: 0
  State 3 respiration driven by succinate at 5XCmax: 0
  State 4 respiration driven by glutamate/malate at 5XCmax: 0
  State 4 respiration driven by succinate at 5XCmax: 0
[3]; 10XCmax
  State 3 respiration driven by glutamate/malate at 10XCmax: 0
  State 3 respiration driven by succinate at 10XCmax: 0
  State 4 respiration driven by glutamate/malate at 10XCmax: 0
  State 4 respiration driven by succinate at 10XCmax: 0
[3]; 20XCmax
  State 3 respiration driven by glutamate/malate at 20XCmax: 0.62±0.05
  State 3 respiration driven by succinate at 20XCmax: 0
  State 4 respiration driven by glutamate/malate at 20XCmax: 0
  State 4 respiration driven by succinate at 20XCmax: 0
[3]; 30XCmax
  State 3 respiration driven by glutamate/malate at 30XCmax: 0.54±0.02
  State 3 respiration driven by succinate at 30XCmax: 0
  State 4 respiration driven by glutamate/malate at 30XCmax: 0
  State 4 respiration driven by succinate at 30XCmax: 0
[3]; 50XCmax
  State 3 respiration driven by glutamate/malate at 50XCmax: 0.49±0.06
  State 3 respiration driven by succinate at 50XCmax: 0
  State 4 respiration driven by glutamate/malate at 50XCmax: 0
  State 4 respiration driven by succinate at 50XCmax: 0
[3]; 100XCmax
  State 3 respiration driven by glutamate/malate at 100XCmax: 0.28±0.06
  State 3 respiration driven by succinate at 100XCmax: 0
  State 4 respiration driven by glutamate/malate at 100XCmax: 0.71±0.08
  State 4 respiration driven by succinate at 100XCmax: 0
[4]; 1XCmax
  Cytochrome c release 1XCmax: 0
[4]; 2.5XCmax
  Cytochrome c release 2.5XCmax: 0
[4]; 5XCmax
  Cytochrome c release 5XCmax: 0
[4]; 10XCmax
  Cytochrome c release 10XCmax: 0
[4]; 20XCmax
  Cytochrome c release 20XCmax: 0
[4]; 30XCmax
  Cytochrome c release 30XCmax: 0
[4]; 50XCmax
  Cytochrome c release 50XCmax: 13.84±2.24 percentage of the positive control group
[4]; 100XCmax
  Cytochrome c release 100XCmax: 8.09±1.58 percentage of the positive control group
RCC IV
  RCC IV at 50XCmax: 0
[5]; 1XCmax
  ROS measured by CM-H2DCFDA at 1XCmax: 0
[5]; 2.5XCmax
  ROS measured by CM-H2DCFDA at 2.5XCmax: 0
[5]; 5XCmax
  ROS measured by CM-H2DCFDA at 5XCmax: 0
[5]; 10XCmax
  ROS measured by CM-H2DCFDA at 10XCmax: 0
[5]; 20XCmax
  ROS measured by CM-H2DCFDA at 20XCmax: 0
[5]; 30XCmax
  ROS measured by CM-H2DCFDA at 30XCmax: 0
[5]; 50XCmax
  ROS measured by CM-H2DCFDA at 50XCmax: 0
[5]; 100XCmax
  ROS measured by CM-H2DCFDA at 100XCmax: 0
[6]; read-out: Cmax at µM
  Cmax: 1.2 µM
[6]
  Cmax: 368 ng/mL
[7]
  DILI potential (based on labeling): 0
